From US9241917B2, “Facially amphiphilic polymers and oligomers and uses thereof” (priority 2003, dated 2016)
≈ marks a conversion by molar mass, not a printed value.

Key:
[1] = tested on: low molecular weight heparin (LMWH, Innohep); experiment: Clotting time of activated plasma in the presence of LMWH; type: biochemical; details: for Clotting time of activated plasma: LMWH 4.6 ug/ml
Heparin = experiment: Clotting time of activated plasma in the presence of heparin; type: biochemical; parameters: unit not given here; details: heparin 1 unit, 0.2 ug/ml
human erythrocytes = experiment: Hemolysis of human erythrocytes; type: cell-based
Method: For example, cytotoxic selectivity can be assessed by determining the hemolytic activity of the polymer or oligomer. Hemolytic activity assays are performed by measuring the degree of hemolysis of human erythrocytes following incubation in the presence of the polymer or oligomer and determining HC50 values. […] See also Javadpour, M. M., et al., J. Med. Chem. 39:3107-3113 (1996).
The toxicity to mammalian cells of polymers and oligomers of the present invention was evaluated using human blood obtained from healthy volunteers, anticoagulated with 0.1 volume of sodium citrate. The general procedure is as follows: Washed erythrocytes are suspended in either HEPES buffer, pH 7.4, containing 1 mM Mg2^+ and 1 mM Ca2^+ or in heated and unheated autologous serum obtained from clotted blood. Red cell agglutination is evaluated microscopically and red cell lysis is evaluated by measuring the amount of released hemoglobin spectroscopically. The effect of polymers on platelet function is studied by adding increasing concentrations of polymer to citrate-anticoagulated platelet-rich plasma. Platelet aggregation and secretion are then evaluated in a lumi-aggregometer (Chrono-Log).
One distinction is that the studies with Pmx10073 were done in whole blood. […] The concentrations of compound that are cytotoxic for mammalian cells were determined and compared to efficacious concentrations. […]

[2] = tested on: Cryptococcus neoformans ATCC 24067; experiment: Antifungal growth assay (MIC100), Cryptococcus neoformans; type: cell-based; details: ATCC24067, 48 h, complete inhibition of growth, 2 days, 37° C.
Method: (§1) Several different genera of fungi were tested for their sensitivity to a set of salicylamide and arylamide oligomers. Both non-filamentous (yeast) and filamentous fungi were tested and specific fungi that are associated with various types of human infections were chosen for the screen (Table 4). […] All growth assays were done in a total of 1 ml volumes and growth was assessed by turbidity measurements. Other assay conditions are described in Table 6.

E. coli (ATCC25922) = experiment: Growth assay (MIC100), E. coli control organism; type: cell-based; details: Escherichia coli, ATCC25922, 20 h
Method: as §1

[3] = tested on: Candida albicans ATCC 10231; experiment: Antifungal growth assay (MIC100), Candida albicans; type: cell-based; details: ATCC10231, 20 h
Method: as §1

[4] = tested on: Trichophyton mentagrophytes ATCC 9533; experiment: Antifungal growth assay (MIC100), Trichophyton mentagrophytes; type: cell-based; details: ATCC9533, 72 h, complete inhibition of growth, 3 days, 28° C.
Method: as §1

[5] = tested on: Aspergillus fumigatus ATCC 1028; experiment: Antifungal growth assay (MIC100), Aspergillus fumigatus; type: cell-based; details: ATCC1028, 48 h, complete inhibition of growth, 2 days, 28° C.
Method: as §1

[6] = tested on: Trichophyton rubrum ATCC 10218; experiment: Antifungal growth assay (MIC100), Trichophyton rubrum; type: cell-based; details: ATCC10218, 72 h, complete inhibition of growth, 3 days, 28° C.
Method: as §1

E. coli = experiment: Antimicrobial assay, minimal inhibitory concentration against E. coli

Row | Compound | Clotting time of activated plasma ([1]; oligomer 14.8 ug/ml) | Clotting time, Average (Heparin; oligomer 4.4 ug/ml) | Clotting time, Trial #1 (Heparin; oligomer 4.4 ug/ml) | Clotting time, Trial #2 (Heparin; oligomer 4.4 ug/ml) | Clotting time, Trial #3 (Heparin; oligomer 4.4 ug/ml) | Clotting time, Trial #4 (Heparin; oligomer 4.4 ug/ml) | Clotting time, Average (Heparin; oligomer 44.4 ug/ml) | Clotting time, Trial #1 (Heparin; oligomer 44.4 ug/ml) | Clotting time, Trial #2 (Heparin; oligomer 44.4 ug/ml) | Clotting time, Trial #3 (Heparin; oligomer 44.4 ug/ml) | Clotting time, Trial #4 (Heparin; oligomer 44.4 ug/ml) | Clotting time of activated plasma ([1]; oligomer 0.4 ug/ml) | also measured
1 | CC(C)CC(NC(=O)c1cc(NC(=O)C(CC(C)C)NC(=O)c2cc(NC(=O)C(CC(C)C)NC(=O)c3cc(NC(=O)C(CC(C)C)NC(=O)c4cc(NC(=O)C(CC(C)C)NC(=O)c5cc(N)ccc5OCCNC(=N)N)ccc4OCCNC(=N)N)ccc3OCCNC(=N)N)ccc2OCCNC(=N)N)ccc1OCCNC(=N)N)C(N)=O (stereo not drawn) [#10] | 97.6 | >400 | 113.8 | 317.6 | >450 | >450 | 38.7 | 40.7 | 35.6 | 36.7 | 33.7 | – | –
2 | CC(C)(C)c1cc(NC(=O)c2cc(OCCN)cc(C(=O)Nc3cc(C(C)(C)C)cc(NC(=O)[C@H](N)CCCNC(=N)N)c3SCCN)c2)c(SCCN)c(NC(=O)[C@H](N)CCCNC(=N)N)c1 [Compound 12] | – | – | – | – | – | – | – | – | – | – | – | – | Concentration lysing red cells (no lysis up to) (human erythrocytes): > 800 µM
3 | CC(C)CCOc1cc(OCCC(C)C)c(C(=O)NNC(=O)c2cc(C(=O)NCCN(C)C)c(OCCCCCN)cc2OCCCCCN)cc1C(=O)NNC(=O)c1cc(C(=O)NCCN(C)C)c(OCCCCCN)cc1OCCCCCN [#19] | 34 | 27.9 | 29.0 | 26.7 | – | – | – | – | – | – | – | 64.2 | Clotting time of activated plasma ([1]; oligomer 1.5 ug/ml): 232.8; Clotting time, Average (Heparin; oligomer 0.4 ug/ml): >400; Clotting time, Trial #1 (Heparin; oligomer 0.4 ug/ml): >400; Clotting time, Average (Heparin; oligomer 1.5 ug/ml): 40.2; Clotting time, Trial #1 (Heparin; oligomer 1.5 ug/ml): 43.2; Clotting time, Trial #2 (Heparin; oligomer 1.5 ug/ml): 37.1
4 | C[C@@H]1[C@H](O)[C@@H](C)/C=C/C=C/C=C/C=C/C=C/C=C/C=C/[C@H](O[C@@H]2O[C@H](C)[C@@H](O)[C@H](N)[C@@H]2O)C[C@@H]2O[C@](O)(C[C@@H](O)C[C@@H](O)[C@H](O)CC[C@@H](O)C[C@@H](O)CC(=O)O[C@H]1C)C[C@H](O)[C@H]2C(=O)O [Amphotericin] | – | – | – | – | – | – | – | – | – | – | – | – | MIC [2]: 0.1 µg/mL (≈ 0.108 µM); MIC (E. coli (ATCC25922)): 3 µg/mL (≈ 3.25 µM); MIC [3]: 0.1 µg/mL (≈ 0.108 µM); MIC [4]: 0.3 µg/mL (≈ 0.325 µM); MIC [5]: 1 µg/mL (≈ 1.08 µM); MIC [6]: 1 µg/mL (≈ 1.08 µM)
5 | CC(C)(C)c1cc(NC(=O)c2cccc(C(=O)Nc3cc(C(C)(C)C)cc(NC(=O)[C@@H](N)CCCNC(=N)N)c3SCCN)c2)c(SCCN)c(NC(=O)[C@@H](N)CCCNC(=N)N)c1 [Compound 6] | – | – | – | – | – | – | – | – | – | – | – | – | MIC (E. coli; Escherichia coli, read-out: MIC E. coli): 6 µg/mL (≈ 6.51 µM); Antimicrobial activity against E. coli, in words (E. coli; text on Tables 1 and 2): highly potent and selective; HC50 RBC (human erythrocytes; Table 1, arylamide series, one hour incubation, 50% hemoglobin release): 715 µg/mL
6 | CC(C)(C)c1cc2c(OCC(=O)NCCCCCN)c(c1)Cc1cc(C(C)(C)C)cc(c1OCC(=O)NCCCCCN)Cc1cc(C(C)(C)C)cc(c1OCC(=O)NCCCCCN)Cc1cc(C(C)(C)C)cc(c1OCC(=O)NCCCCCN)C2 [#18] | 48.6 | 57.6 | 57.6 | – | – | – | – | – | – | – | – | 140.1 | –
7 | CC(C)CCOc1cc(OCCC(C)C)c(C(=O)NNC(=O)c2cc(C(=O)NCCN(C)C)c(OCCCCCN)cc2OCCCCCN)cc1C(=O)NNC(=O)c1cc(C(=O)NCCN(C)C)c(OCCCCCN)cc1OCCCCCN [Compound 19] | – | – | – | – | – | – | – | – | – | – | – | – | Antagonism of the delay in plasma clotting caused by LMWH, in words ([1]; oligomer 4.4 ug/ml, LMWH (Innohep) 4.6 ug/ml final concentration): significantly antagonized the delay in plasma clotting
8 | CC(C)CC(N)C(=O)Nc1cc(C(C)(C)C)cc(NC(=O)c2cccc(C(=O)Nc3cc(C(C)(C)C)cc(NC(=O)C(N)CC(C)C)c3SCCN)c2)c1SCCN (stereo not drawn) [#13] | 189.2 | 92.4 | 81.2 | 88.2 | 94.1 | 106.2 | – | – | – | – | – | – | –
9 | CC(C)CCOc1ccc(NC(=O)C(CCCNC(=N)N)NC(=O)c2cc(NC(=O)C(CCCNC(=N)N)NC(=O)c3cc(NC(=O)C(CCCNC(=N)N)NC(=O)c4cc(NC(=O)C(CCCNC(=N)N)NC(=O)c5cc(N)ccc5OCCC(C)C)ccc4OCCC(C)C)ccc3OCCC(C)C)ccc2OCCC(C)C)cc1C(=O)NC(CCCNC(=N)N)C(N)=O (stereo not drawn) [#4] | 44.9 | 169.8 | 175.5 | 153.8 | 157.1 | 192.6 | 29.2 | 31.6 | 29.6 | 29.6 | 26.1 | 137.7 | –
10 | COc1ccc(NC(=O)C(CCCNC(=N)N)NC(=O)c2cc(NC(=O)C(CCCNC(=N)N)NC(=O)c3cc(NC(=O)C(CCCNC(=N)N)NC(=O)c4cc(NC(=O)C(CCCNC(=N)N)NC(=O)c5cc(N)ccc5OC)ccc4OC)ccc3OC)ccc2OC)cc1C(=O)NC(CCCNC(=N)N)C(N)=O (stereo not drawn) [#3] | 109.2 | 80.3 | 72.2 | 75.1 | 81.2 | 92.6 | 36.8 | 38.7 | 34.1 | 38.6 | 35.6 | – | –
